We go through 4 compounds from ChEMBL document CHEMBL1909046, “DrugMatrix in vitro pharmacology data”.

Sequence of Sigma non-opioid intracellular receptor 1 (Q99720 whole entry): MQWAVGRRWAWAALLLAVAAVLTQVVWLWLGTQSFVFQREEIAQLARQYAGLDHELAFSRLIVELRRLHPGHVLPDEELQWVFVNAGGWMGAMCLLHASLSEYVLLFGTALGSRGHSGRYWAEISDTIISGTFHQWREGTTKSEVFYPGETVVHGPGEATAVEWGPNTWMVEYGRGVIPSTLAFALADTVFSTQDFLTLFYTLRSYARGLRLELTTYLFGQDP

One assay deals with Protein kinase C alpha type (Homo sapiens, UniProt P17252). Format: cell-based. The following applies: sf9.
`OCc1ccccc1` [BENZYL ALCOHOL]: the IC50 entry is given as “Not Active”.

For `C=C1C(=O)O[C@@H]2C3O[C@]3(C)CC/C=C(\C)CC[C@@H]12` (stereo partly drawn), the IC50 result is listed as “Not Active”.

Take `CCOC(=O)c1ccc(N)cc1` [BENZOCAINE]: the IC50 entry is “Not Active”.

In the case of OXALIPLATIN, the IC50 result was “Not Active” and the Ki result was “Not Active”.

The next assay has as its target T1, Muscarinic acetylcholine receptor M4 (Homo sapiens, UniProt P08173). Also: in other assays of this panel Not Active means under 50% inhibition at 10 µM.
T1 sequence (P08173 whole entry): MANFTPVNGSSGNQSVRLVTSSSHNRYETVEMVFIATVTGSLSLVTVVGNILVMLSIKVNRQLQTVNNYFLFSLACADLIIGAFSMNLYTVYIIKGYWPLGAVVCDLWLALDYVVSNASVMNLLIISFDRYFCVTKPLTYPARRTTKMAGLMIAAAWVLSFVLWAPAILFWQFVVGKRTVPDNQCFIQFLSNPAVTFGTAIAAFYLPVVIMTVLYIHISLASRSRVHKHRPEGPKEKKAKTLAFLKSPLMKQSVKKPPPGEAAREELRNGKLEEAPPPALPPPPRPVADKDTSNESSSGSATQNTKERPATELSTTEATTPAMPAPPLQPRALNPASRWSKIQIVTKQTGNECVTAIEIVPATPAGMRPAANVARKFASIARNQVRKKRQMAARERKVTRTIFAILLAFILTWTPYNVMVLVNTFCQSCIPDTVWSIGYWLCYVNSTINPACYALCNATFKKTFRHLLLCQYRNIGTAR
Format: cell membranes, CHO-K1, Membrane. The settings on record: cho-k1.
For the compound `OCc1ccccc1` [BENZYL ALCOHOL], the IC50 entry is reported as “Not Active”.

Turning to `C=C1C(=O)O[C@@H]2C3O[C@]3(C)CC/C=C(\C)CC[C@@H]12` (stereo partly drawn), the IC50 entry is “Not Active”.

Turning to `CCOC(=O)c1ccc(N)cc1` [BENZOCAINE], the IC50 result is on record as “Not Active”.

For the compound OXALIPLATIN, the IC50 result is reported as “Not Active” and the Ki result was “Not Active”.

The target in the next assay is T2, Progesterone receptor (Bos taurus, UniProt Q690N0).
T2 sequence (Q690N0 whole entry): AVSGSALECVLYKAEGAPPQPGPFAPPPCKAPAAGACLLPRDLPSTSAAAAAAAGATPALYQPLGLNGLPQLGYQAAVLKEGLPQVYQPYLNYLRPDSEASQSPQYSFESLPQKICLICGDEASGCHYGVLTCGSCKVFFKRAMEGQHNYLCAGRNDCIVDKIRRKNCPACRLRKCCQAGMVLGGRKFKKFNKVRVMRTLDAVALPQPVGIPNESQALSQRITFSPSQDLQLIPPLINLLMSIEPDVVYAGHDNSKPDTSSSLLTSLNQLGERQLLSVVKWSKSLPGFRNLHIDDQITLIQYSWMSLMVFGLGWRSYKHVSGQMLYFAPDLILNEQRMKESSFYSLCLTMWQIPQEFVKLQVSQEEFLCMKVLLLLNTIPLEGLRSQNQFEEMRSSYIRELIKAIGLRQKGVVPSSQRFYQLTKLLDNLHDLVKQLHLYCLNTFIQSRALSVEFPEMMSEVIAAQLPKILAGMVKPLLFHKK
In words: DRUGMATRIX: Progesterone radioligand binding (ligand: [3H] R-5020). Format: tissue-based, Uterus. The following applies: Not Active = under 50% inhibition at 10 µM.
As to `OCc1ccccc1` [BENZYL ALCOHOL], the IC50 result is “Not Active”.

In the case of `C=C1C(=O)O[C@@H]2C3O[C@]3(C)CC/C=C(\C)CC[C@@H]12` (stereo partly drawn), the IC50 entry was “Not Active”.

As to `CCOC(=O)c1ccc(N)cc1` [BENZOCAINE], the IC50 result is listed as “Not Active”.

OXALIPLATIN: the IC50 result is on record as “Not Active” and the Ki result is listed as “Not Active”.

In a further assay the target is Delta-type opioid receptor (Homo sapiens, UniProt P41143). Format: cell membranes, HEK293, Membrane. The following applies: hek293. Also: in other assays of this panel Not Active means under 50% inhibition at 10 µM.
Sequence of Delta-type opioid receptor (P41143 whole entry): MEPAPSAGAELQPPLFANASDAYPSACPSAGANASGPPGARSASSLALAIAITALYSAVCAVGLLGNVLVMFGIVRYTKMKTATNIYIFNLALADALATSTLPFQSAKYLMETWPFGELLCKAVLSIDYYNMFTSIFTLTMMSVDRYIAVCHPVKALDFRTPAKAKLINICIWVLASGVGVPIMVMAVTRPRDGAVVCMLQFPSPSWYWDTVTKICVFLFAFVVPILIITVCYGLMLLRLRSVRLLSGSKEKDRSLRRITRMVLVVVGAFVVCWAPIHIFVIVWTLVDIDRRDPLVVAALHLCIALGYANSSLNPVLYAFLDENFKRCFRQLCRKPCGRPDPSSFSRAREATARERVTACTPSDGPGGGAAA
Take `OCc1ccccc1` [BENZYL ALCOHOL]: the IC50 result is reported as “Not Active”.

For the compound `C=C1C(=O)O[C@@H]2C3O[C@]3(C)CC/C=C(\C)CC[C@@H]12` (stereo partly drawn), the IC50 result is reported as “Not Active”.

`CCOC(=O)c1ccc(N)cc1` [BENZOCAINE]: the IC50 entry is listed as “Not Active”.

On to OXALIPLATIN, for which the IC50 result is “Not Active” and the Ki result was “Not Active”.

System in another assay: not listed separately
The experiment in a line: DRUGMATRIX: Serotonin (5-Hydroxytryptamine) 5-HT3 radioligand binding (ligand: [3H] GR-65630). The following applies: hek293; Not Active = under 50% inhibition at 10 µM. Format: cell membranes, Membrane.
For the compound `OCc1ccccc1` [BENZYL ALCOHOL], the IC50 result is recorded as “Not Active” and the Ki entry is on record as “Not Active”.

In the case of `C=C1C(=O)O[C@@H]2C3O[C@]3(C)CC/C=C(\C)CC[C@@H]12` (stereo partly drawn), the IC50 entry is on record as “Not Active” and the Ki entry is “Not Active”.

On to `CCOC(=O)c1ccc(N)cc1` [BENZOCAINE], for which the IC50 entry was “Not Active” and the Ki entry is listed as “Not Active”.

For the compound OXALIPLATIN, the IC50 result is reported as “Not Active” and the Ki entry is on record as “Not Active”.

The target in a further assay is Matrix metalloproteinase-9 (Homo sapiens, UniProt P14780). Format: cell-based.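 Also: inhibition of isolated MMP-9 enzyme activity toward a synthetic peptide substrate, from the DrugMatrix protease screening panel; in other assays of this panel Not Active means under 50% inhibition at 10 µM.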
Sequence of Matrix metalloproteinase-9 (P14780 whole entry): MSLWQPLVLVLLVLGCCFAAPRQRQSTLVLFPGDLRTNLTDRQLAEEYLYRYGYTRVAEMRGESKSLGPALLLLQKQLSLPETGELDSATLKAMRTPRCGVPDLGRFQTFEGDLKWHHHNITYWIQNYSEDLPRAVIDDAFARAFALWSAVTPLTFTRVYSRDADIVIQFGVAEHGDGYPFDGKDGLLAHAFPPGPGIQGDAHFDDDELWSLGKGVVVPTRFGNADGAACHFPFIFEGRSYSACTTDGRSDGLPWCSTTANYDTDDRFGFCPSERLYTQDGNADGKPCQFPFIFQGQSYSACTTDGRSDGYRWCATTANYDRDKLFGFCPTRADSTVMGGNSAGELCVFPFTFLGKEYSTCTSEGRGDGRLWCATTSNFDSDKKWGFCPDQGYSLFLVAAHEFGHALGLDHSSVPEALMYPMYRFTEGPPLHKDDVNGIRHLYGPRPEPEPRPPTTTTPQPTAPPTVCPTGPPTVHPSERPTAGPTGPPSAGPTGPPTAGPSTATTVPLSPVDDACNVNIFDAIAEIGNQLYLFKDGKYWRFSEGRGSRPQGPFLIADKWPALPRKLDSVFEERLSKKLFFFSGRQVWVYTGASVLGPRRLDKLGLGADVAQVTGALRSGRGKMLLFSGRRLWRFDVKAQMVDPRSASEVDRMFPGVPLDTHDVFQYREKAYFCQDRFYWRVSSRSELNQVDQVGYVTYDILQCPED
Details: not given
Take `OCc1ccccc1` [BENZYL ALCOHOL]: the IC50 entry is “Not Active”.

Regarding `C=C1C(=O)O[C@@H]2C3O[C@]3(C)CC/C=C(\C)CC[C@@H]12` (stereo partly drawn), the IC50 entry is “Not Active”.

Regarding `CCOC(=O)c1ccc(N)cc1` [BENZOCAINE], the IC50 result was “Not Active”.

For OXALIPLATIN, the IC50 result is given as “Not Active” and the Ki entry was “Not Active”.

The next assay has as its target Sigma non-opioid intracellular receptor 1 (Homo sapiens, UniProt Q99720). In words: DRUGMATRIX: Sigma1 radioligand binding (ligand: [3H] Haloperidol). Format: cell membranes, Jurkat, Membrane. The following applies: jurkat; Not Active = under 50% inhibition at 10 µM.
Turning to `OCc1ccccc1` [BENZYL ALCOHOL], the IC50 entry is listed as “Not Active”.

As to `C=C1C(=O)O[C@@H]2C3O[C@]3(C)CC/C=C(\C)CC[C@@H]12` (stereo partly drawn), the IC50 result is given as “Not Active”.

As for `CCOC(=O)c1ccc(N)cc1` [BENZOCAINE], the IC50 entry was “Not Active”.

As to OXALIPLATIN, the IC50 result is “Not Active” and the Ki result was “Not Active”.

The next assay concerns the target T3, B2 bradykinin receptor (Homo sapiens, UniProt P30411). Also: in other assays of this panel Not Active means under 50% inhibition at 10 µM.
T3 sequence (P30411 whole entry): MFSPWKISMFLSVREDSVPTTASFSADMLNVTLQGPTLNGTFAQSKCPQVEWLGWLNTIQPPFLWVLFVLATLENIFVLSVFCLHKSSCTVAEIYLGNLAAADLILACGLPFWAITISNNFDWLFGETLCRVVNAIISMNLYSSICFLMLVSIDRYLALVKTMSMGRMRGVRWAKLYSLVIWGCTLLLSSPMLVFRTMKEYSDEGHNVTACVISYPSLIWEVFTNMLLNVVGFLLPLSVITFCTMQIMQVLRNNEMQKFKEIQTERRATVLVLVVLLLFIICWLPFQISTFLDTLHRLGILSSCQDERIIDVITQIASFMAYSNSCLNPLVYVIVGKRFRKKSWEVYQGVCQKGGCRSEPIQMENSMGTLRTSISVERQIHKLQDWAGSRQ
Format: cell membranes, Membrane. The following applies: chem-1.
Consider `OCc1ccccc1` [BENZYL ALCOHOL], for which the IC50 result is “Not Active”.

For the compound `C=C1C(=O)O[C@@H]2C3O[C@]3(C)CC/C=C(\C)CC[C@@H]12` (stereo partly drawn), the IC50 entry was “Not Active”.

For the compound `CCOC(=O)c1ccc(N)cc1` [BENZOCAINE], the IC50 result is given as “Not Active”.

On to OXALIPLATIN, for which the IC50 entry was “Not Active” and the Ki entry is “Not Active”.

Another assay addresses Vascular endothelial growth factor receptor 1 (Homo sapiens, UniProt P17948). Format: cell-based. The following applies: huvec.
As to `OCc1ccccc1` [BENZYL ALCOHOL], the IC50 result is given as “Not Active”.

Take `C=C1C(=O)O[C@@H]2C3O[C@]3(C)CC/C=C(\C)CC[C@@H]12` (stereo partly drawn): the IC50 entry was “Not Active”.

As for `CCOC(=O)c1ccc(N)cc1` [BENZOCAINE], the IC50 entry was “Not Active”.

Turning to OXALIPLATIN, the IC50 entry is listed as “Not Active” and the Ki entry is “Not Active”.

A further assay deals with T4, Alpha-1A adrenergic receptor (Rattus norvegicus, UniProt P43140).
T4 sequence (P43140 whole entry): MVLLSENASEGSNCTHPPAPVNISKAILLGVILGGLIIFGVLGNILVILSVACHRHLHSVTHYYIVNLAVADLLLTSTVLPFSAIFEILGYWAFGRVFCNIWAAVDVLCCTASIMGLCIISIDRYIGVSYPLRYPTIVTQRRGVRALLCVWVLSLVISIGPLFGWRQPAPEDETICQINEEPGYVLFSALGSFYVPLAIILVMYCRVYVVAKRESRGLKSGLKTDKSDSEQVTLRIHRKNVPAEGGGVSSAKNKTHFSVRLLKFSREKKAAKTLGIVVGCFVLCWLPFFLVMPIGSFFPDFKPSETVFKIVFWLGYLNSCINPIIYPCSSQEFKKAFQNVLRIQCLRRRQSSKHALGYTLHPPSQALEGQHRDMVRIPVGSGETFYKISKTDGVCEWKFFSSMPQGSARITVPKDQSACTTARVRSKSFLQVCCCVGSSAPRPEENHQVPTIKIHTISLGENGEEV
The experiment in a line: DRUGMATRIX: Alpha-1A adrenergic receptor radioligand binding (ligand: prazosin). Format: cell membranes, Wistar, Submaxillary gland, Membrane. The following applies: Not Active = under 50% inhibition at 10 µM.
For the compound `OCc1ccccc1` [BENZYL ALCOHOL], the IC50 entry is listed as “Not Active”.

As for `C=C1C(=O)O[C@@H]2C3O[C@]3(C)CC/C=C(\C)CC[C@@H]12` (stereo partly drawn), the IC50 result is listed as “Not Active”.

Take `CCOC(=O)c1ccc(N)cc1` [BENZOCAINE]: the IC50 result is given as “Not Active”.

For OXALIPLATIN, the IC50 result is “Not Active” and the Ki entry is “Not Active”.

The target in a further assay is Nitric oxide synthase 1 (Rattus norvegicus, UniProt P29476). Format: tissue-based, Cerebellum. Also: in other assays of this panel Not Active means under 50% inhibition at 10 µM.
Sequence of Nitric oxide synthase 1 (P29476 whole entry): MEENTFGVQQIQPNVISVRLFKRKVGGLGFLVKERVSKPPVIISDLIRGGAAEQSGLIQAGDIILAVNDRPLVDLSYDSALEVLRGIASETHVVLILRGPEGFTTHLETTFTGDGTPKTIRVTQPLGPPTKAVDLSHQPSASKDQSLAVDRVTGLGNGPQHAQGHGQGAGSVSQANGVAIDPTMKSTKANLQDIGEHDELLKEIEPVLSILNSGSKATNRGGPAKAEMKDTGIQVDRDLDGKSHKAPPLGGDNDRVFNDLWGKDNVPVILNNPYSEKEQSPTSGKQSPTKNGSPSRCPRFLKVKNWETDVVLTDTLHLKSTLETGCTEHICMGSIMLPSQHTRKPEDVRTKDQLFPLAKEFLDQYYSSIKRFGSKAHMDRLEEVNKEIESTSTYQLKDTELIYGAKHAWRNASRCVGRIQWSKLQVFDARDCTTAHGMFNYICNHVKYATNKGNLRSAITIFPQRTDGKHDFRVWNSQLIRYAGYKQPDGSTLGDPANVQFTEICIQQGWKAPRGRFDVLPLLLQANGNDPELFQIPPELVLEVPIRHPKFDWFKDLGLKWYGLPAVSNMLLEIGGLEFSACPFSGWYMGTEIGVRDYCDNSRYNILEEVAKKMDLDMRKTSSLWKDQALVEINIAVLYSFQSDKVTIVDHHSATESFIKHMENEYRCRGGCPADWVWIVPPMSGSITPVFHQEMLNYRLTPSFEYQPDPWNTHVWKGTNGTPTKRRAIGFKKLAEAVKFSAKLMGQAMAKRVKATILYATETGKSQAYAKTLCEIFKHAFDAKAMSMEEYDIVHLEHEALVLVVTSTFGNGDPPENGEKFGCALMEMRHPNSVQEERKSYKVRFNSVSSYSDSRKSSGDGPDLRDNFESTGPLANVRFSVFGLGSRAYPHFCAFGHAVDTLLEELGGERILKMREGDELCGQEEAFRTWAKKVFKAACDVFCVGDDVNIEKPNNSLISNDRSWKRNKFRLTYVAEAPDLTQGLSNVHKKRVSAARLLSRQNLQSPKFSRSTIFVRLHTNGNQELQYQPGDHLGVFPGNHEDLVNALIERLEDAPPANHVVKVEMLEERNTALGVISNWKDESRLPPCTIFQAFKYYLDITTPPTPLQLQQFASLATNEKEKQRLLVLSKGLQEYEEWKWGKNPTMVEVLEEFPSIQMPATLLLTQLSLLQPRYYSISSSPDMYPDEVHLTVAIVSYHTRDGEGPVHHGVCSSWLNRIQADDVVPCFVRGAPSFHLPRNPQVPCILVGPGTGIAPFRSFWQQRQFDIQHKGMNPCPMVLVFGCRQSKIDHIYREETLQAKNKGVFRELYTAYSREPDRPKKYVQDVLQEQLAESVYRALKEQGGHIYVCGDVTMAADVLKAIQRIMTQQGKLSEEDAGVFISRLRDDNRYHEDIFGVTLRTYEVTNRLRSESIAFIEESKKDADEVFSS
Details: not given
For `OCc1ccccc1` [BENZYL ALCOHOL], the IC50 entry is recorded as “Not Active”.

On to `C=C1C(=O)O[C@@H]2C3O[C@]3(C)CC/C=C(\C)CC[C@@H]12` (stereo partly drawn), for which the IC50 entry was “Not Active”.

For the compound `CCOC(=O)c1ccc(N)cc1` [BENZOCAINE], the IC50 result is “Not Active”.

For the compound OXALIPLATIN, the IC50 result was “Not Active” and the Ki entry was “Not Active”.

The target of another assay is Mitogen-activated protein kinase 14 (Homo sapiens, UniProt Q16539). Set-up: species or system Escherichia coli.
Sequence of Mitogen-activated protein kinase 14 (Q16539 whole entry): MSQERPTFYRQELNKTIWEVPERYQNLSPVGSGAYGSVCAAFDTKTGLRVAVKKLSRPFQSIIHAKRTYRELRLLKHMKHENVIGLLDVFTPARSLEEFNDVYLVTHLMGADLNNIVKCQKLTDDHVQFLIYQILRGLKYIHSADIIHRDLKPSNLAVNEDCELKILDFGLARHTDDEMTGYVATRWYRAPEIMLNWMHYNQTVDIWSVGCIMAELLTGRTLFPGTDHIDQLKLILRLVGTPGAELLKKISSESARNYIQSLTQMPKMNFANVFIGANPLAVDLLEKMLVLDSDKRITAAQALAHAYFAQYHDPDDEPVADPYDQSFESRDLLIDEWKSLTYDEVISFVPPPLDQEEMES
Details: not given
In the case of `OCc1ccccc1` [BENZYL ALCOHOL], the IC50 result was “Not Active”.

`C=C1C(=O)O[C@@H]2C3O[C@]3(C)CC/C=C(\C)CC[C@@H]12` (stereo partly drawn): the IC50 result is listed as “Not Active”.

On to `CCOC(=O)c1ccc(N)cc1` [BENZOCAINE], for which the IC50 entry is recorded as “Not Active”.

As for OXALIPLATIN, the IC50 result is reported as “Not Active” and the Ki entry was “Not Active”.
